Reference: patent US20140128402A1, “PHARMACEUTICAL COMBINATION” (IPCA Laboratories Limited, priority 2011, published 2014)

What was measured:
Type in all cases: in vivo, Wistar rats
[1] = test system: STZ induced diabetic rats; experiment: Study No 2: blood glucose in STZ induced diabetic rats (HCQ with vildagliptin and saxagliptin); details: for Plasma glucose concentration: oral
Experimental: In this experiment 96 Wistar rats weighing 150-200 g of either sex were divided randomly into 16 groups consisting of 6 rats each. The study drugs were dissolved in water/suspended in vehicle [0.1% w/v suspension of Tween 80 and carboxymethylcellulose (CMC) in water] and administered orally for 28 days. Group 1 (normal vehicle control) consisted of normal rats that neither received Streptozotocin (STZ) nor any test drug; Group 2 served as Streptozotocin induced diabetic control [Diabetes was induced in rats by single administration of Streptozotocin (55 mg/kg/i.p.) dissolved in 0.1 M-citrate buffer, pH 4.5]. Forty-eight hours later, blood samples were collected and glucose levels were determined to confirm the development of diabetes. Only animals showing hyperglycaemia (blood glucose levels>250 mg/dl) were considered as diabetic and received vehicle orally; Group 3 was diabetic rats treated with hydroxychloroquine (HCQ) (22.5 mg/kg); Group 4 was diabetic rats treated with HCQ (45 mg/kg), Group 5 was diabetic rats treated with vildagliptin (VG) 6 mg/kg; Group 6 was diabetic rats treated with VG 12 mg/kg; Group 7 was diabetic rats treated with HCQ 22.5 mg/kg+VG 12 mg/kg and Group 8 was diabetic rats treated with combination of HCQ 45 mg/kg and VG 6 mg/kg; Group 9 was diabetic rats treated with saxagliptin (SG) 0.3 mg/kg; Group 10 was diabetic rats treated with Saxagliptin (SG) 0.6 mg/kg; Group 11 was diabetic rats treated with combination of HCQ 45 mg/kg+SG 0.3 mg/kg; Group 12 was diabetic rats treated with combination of HCQ 22.5 mg/kg+SG 0.6 mg/kg; Group 13 was diabetic rats treated with combination of HCQ 22.5 mg/kg and VG 6 mg/kg; Group 14 was diabetic rats treated with combination of HCQ 45 mg/kg and VG 12 mg/kg; Group 15 was diabetic rats treated with combination of HCQ 22.5 mg/kg+SG 0.3 mg/kg; Group 16 was diabetic rats treated with combination of HCQ 45 mg/kg+SG 0.6 mg/kg.
Blood glucose level was measured in normal and experimental rats at 0, 7th, 14th, 21st and 28th day of administration.

[2] = test system: STZ-induced diabetic rats; experiment: Study No 2: biochemical parameters in STZ-induced diabetic rats; details: for Creatinine / HbA1c / Total Protein / Urea: after 28 days, oral
[3] = test system: STZ-induced diabetic rats; experiment: Study No 2: body weight, water intake and food intake in STZ-induced diabetic rats; details: for AVERAGE FOOD INTAKE / AVERAGE WATER INTAKE / Body Weight: oral
[4] = Day 0, HCQ 22.5, VG 6, SG 0.3 mg/kg alone, HCQ+VG 22.5+6, HCQ+SG 22.5+0.3 mg/kg
[5] = Day 0, HCQ 45, VG 12, SG 0.6 mg/kg alone, HCQ+VG 45+12, HCQ+SG 45+0.6 mg/kg
[6] = Day 7, HCQ 22.5, VG 6, SG 0.3 mg/kg alone, HCQ+VG 22.5+6, HCQ+SG 22.5+0.3 mg/kg
[7] = Day 7, HCQ 45, VG 12, SG 0.6 mg/kg alone, HCQ+VG 45+12, HCQ+SG 45+0.6 mg/kg
[8] = Day 14, HCQ 22.5, VG 6, SG 0.3 mg/kg alone, HCQ+VG 22.5+6, HCQ+SG 22.5+0.3 mg/kg
[9] = Day 14, HCQ 45, VG 12, SG 0.6 mg/kg alone, HCQ+VG 45+12, HCQ+SG 45+0.6 mg/kg
[10] = Day 21, HCQ 22.5, VG 6, SG 0.3 mg/kg alone, HCQ+VG 22.5+6, HCQ+SG 22.5+0.3 mg/kg
[11] = Day 21, HCQ 45, VG 12, SG 0.6 mg/kg alone, HCQ+VG 45+12, HCQ+SG 45+0.6 mg/kg
[12] = Day 28, HCQ 22.5, VG 6, SG 0.3 mg/kg alone, HCQ+VG 22.5+6, HCQ+SG 22.5+0.3 mg/kg
[13] = Day 28, HCQ 45, VG 12, SG 0.6 mg/kg alone, HCQ+VG 45+12, HCQ+SG 45+0.6 mg/kg
[14] = HCQ 22.5, VG 6, SG 0.3 mg/kg alone, HCQ+VG 22.5+6, HCQ+SG 22.5+0.3 mg/kg/day
[15] = HCQ 45, VG 12, SG 0.6 mg/kg alone, HCQ+VG 45+12, HCQ+SG 45+0.6 mg/kg/day
[16] = Day 0, HCQ 22.5, VG 6, SG 0.3 mg/kg alone, HCQ+VG 22.5+6, HCQ+SG 22.5+0.3 mg/kg/day
[17] = Day 0, HCQ 45, VG 12, SG 0.6 mg/kg alone, HCQ+VG 45+12, HCQ+SG 45+0.6 mg/kg/day
[18] = Day 7, HCQ 22.5, VG 6, SG 0.3 mg/kg alone, HCQ+VG 22.5+6, HCQ+SG 22.5+0.3 mg/kg/day
[19] = Day 7, HCQ 45, VG 12, SG 0.6 mg/kg alone, HCQ+VG 45+12, HCQ+SG 45+0.6 mg/kg/day
[20] = Day 14, HCQ 22.5, VG 6, SG 0.3 mg/kg alone, HCQ+VG 22.5+6, HCQ+SG 22.5+0.3 mg/kg/day
[21] = Day 14, HCQ 45, VG 12, SG 0.6 mg/kg alone, HCQ+VG 45+12, HCQ+SG 45+0.6 mg/kg/day
[22] = Day 21, HCQ 22.5, VG 6, SG 0.3 mg/kg alone, HCQ+VG 22.5+6, HCQ+SG 22.5+0.3 mg/kg/day
[23] = Day 21, HCQ 45, VG 12, SG 0.6 mg/kg alone, HCQ+VG 45+12, HCQ+SG 45+0.6 mg/kg/day
[24] = Day 28, HCQ 22.5, VG 6, SG 0.3 mg/kg alone, HCQ+VG 22.5+6, HCQ+SG 22.5+0.3 mg/kg/day
[25] = Day 28, HCQ 45, VG 12, SG 0.6 mg/kg alone, HCQ+VG 45+12, HCQ+SG 45+0.6 mg/kg/day
[26] = monotherapies, all the tested dose levels except HCQ (22.5 mg/kg), p≦0.05

N#C[C@@H]1C[C@@H]2C[C@@H]2N1C(=O)[C@@H](N)C12CC3CC(CC(O)(C3)C1)C2 [SG, Saxagliptin]
Plasma glucose concentration [1, 4]: 288.83 ± 26.19 mg/dL
Plasma glucose concentration [1, 5]: 285.5 ± 33.58 mg/dL
Plasma glucose concentration [1, 6]: 246.5 ± 4.89 mg/dL
Plasma glucose concentration [1, 7]: 146.5 ± 4.89 mg/dL
Plasma glucose concentration [1, 8]: 226.33 ± 12.36 mg/dL
Plasma glucose concentration [1, 9]: 138.5 ± 7.23 mg/dL
Plasma glucose concentration [1, 10]: 194 ± 38.79 mg/dL
Plasma glucose concentration [1, 11]: 137.5 ± 9.44 mg/dL
Plasma glucose concentration [1, 12]: 194.17 ± 17.17 mg/dL
Plasma glucose concentration [1, 13]: 161 ± 9.67 mg/dL
Creatinine [2, 14]: 1.89 ± 0.23 mg/dL
HbA1c [2, 14]: 10.79 ± 1.05 %
Total Protein [2, 14]: 6.55 ± 0.37 gm/dl
Urea [2, 14]: 22.74 ± 2.71 mg/dL
Creatinine [2, 15]: 1.81 ± 0.27 mg/dL
HbA1c [2, 15]: 9.65 ± 1.51 %
Total Protein [2, 15]: 6.62 ± 0.49 gm/dl
Urea [2, 15]: 21.26 ± 2.41 mg/dL
AVERAGE FOOD INTAKE [3, 16]: 12.13 g
AVERAGE WATER INTAKE [3, 16]: 23.71 mL
Body Weight [3, 16]: 208.33 ± 6.15 g
AVERAGE FOOD INTAKE [3, 17]: 12.45 g
AVERAGE WATER INTAKE [3, 17]: 24.86 mL
Body Weight [3, 17]: 211 ± 7.38 g
AVERAGE FOOD INTAKE [3, 18]: 14.00 g
AVERAGE WATER INTAKE [3, 18]: 21.12 mL
Body Weight [3, 18]: 199.5 ± 7.69 g
AVERAGE FOOD INTAKE [3, 19]: 14.45 g
AVERAGE WATER INTAKE [3, 19]: 21.11 mL
Body Weight [3, 19]: 203.17 ± 7.47 g
AVERAGE FOOD INTAKE [3, 20]: 12.54 g
AVERAGE WATER INTAKE [3, 20]: 21.67 mL
Body Weight [3, 20]: 197.83 ± 8.06 g
AVERAGE FOOD INTAKE [3, 21]: 12.00 g
AVERAGE WATER INTAKE [3, 21]: 21.89 mL
Body Weight [3, 21]: 201.17 ± 8.52 g
AVERAGE FOOD INTAKE [3, 22]: 13.05 g
AVERAGE WATER INTAKE [3, 22]: 25.17 mL
Body Weight [3, 22]: 196.33 ± 8.36 g
AVERAGE FOOD INTAKE [3, 23]: 13.26 g
AVERAGE WATER INTAKE [3, 23]: 26.00 mL
Body Weight [3, 23]: 199.83 ± 8.35 g
AVERAGE FOOD INTAKE [3, 24]: 14.25 g
AVERAGE WATER INTAKE [3, 24]: 25.19 mL
Body Weight [3, 24]: 193.83 ± 8.13 g
AVERAGE FOOD INTAKE [3, 25]: 14.00 g
AVERAGE WATER INTAKE [3, 25]: 25.12 mL
Body Weight [3, 25]: 198 ± 8.74 g

N#C[C@@H]1CCCN1C(=O)CNC12CC3CC(CC(O)(C3)C1)C2 [VG, Vildagliptin]
Plasma glucose concentration [1, 4]: 296 ± 21.59 mg/dL
Plasma glucose concentration [1, 5]: 288 ± 11.58 mg/dL
Plasma glucose concentration [1, 6]: 242.17 ± 40.58 mg/dL
Plasma glucose concentration [1, 7]: 227 ± 40.57 mg/dL
Plasma glucose concentration [1, 8]: 199.83 ± 35.33 mg/dL
Plasma glucose concentration [1, 9]: 188.83 ± 34.23 mg/dL
Plasma glucose concentration [1, 10]: 191.33 ± 22.46 mg/dL
Plasma glucose concentration [1, 11]: 173.5 ± 15.6 mg/dL
Plasma glucose concentration [1, 12]: 182.67 ± 33.01 mg/dL
Plasma glucose concentration [1, 13]: 167.5 ± 9.12 mg/dL
blood glucose levels as compared to diabetic control group ([1]; alone at therapeutic equivalent doses, day 28): significant improvement
Creatinine [2, 14]: 1.78 ± 0.14 mg/dL
HbA1c [2, 14]: 10.76 ± 0.97 %
Total Protein [2, 14]: 7.08 ± 0.55 gm/dl
Urea [2, 14]: 21.48 ± 4.35 mg/dL
Creatinine [2, 15]: 1.69 ± 0.21 mg/dL
HbA1c [2, 15]: 9.97 ± 0.95 %
Total Protein [2, 15]: 7.15 ± 0.19 gm/dl
Urea [2, 15]: 20.23 ± 1.89 mg/dL
HbA1c levels as compared to diabetic control ([2]; all tested doses, 28 days, p≦0.05): significantly (p≦0.05) reduced
total protein level as compared to the diabetic control group ([2]; monotherapies at all doses, 28 days, p≦0.05): significant rise
creatinine levels as compared to diabetic control group [2, 26]: significant reduction
urea levels as compared to diabetic control group [2, 26]: significant reduction
AVERAGE FOOD INTAKE [3, 16]: 11.40 g
AVERAGE WATER INTAKE [3, 16]: 25.00 mL
Body Weight [3, 16]: 195 ± 7.18 g
AVERAGE FOOD INTAKE [3, 17]: 11.90 g
AVERAGE WATER INTAKE [3, 17]: 24.35 mL
Body Weight [3, 17]: 197.5 ± 6.35 g
AVERAGE FOOD INTAKE [3, 18]: 13.00 g
AVERAGE WATER INTAKE [3, 18]: 22.12 mL
Body Weight [3, 18]: 179.17 ± 11.27 g
AVERAGE FOOD INTAKE [3, 19]: 13.50 g
AVERAGE WATER INTAKE [3, 19]: 22.19 mL
Body Weight [3, 19]: 189 ± 3.52 g
AVERAGE FOOD INTAKE [3, 20]: 12.10 g
AVERAGE WATER INTAKE [3, 20]: 21.32 mL
Body Weight [3, 20]: 182.83 ± 12.66 g
AVERAGE FOOD INTAKE [3, 21]: 12.00 g
AVERAGE WATER INTAKE [3, 21]: 22.11 mL
Body Weight [3, 21]: 187.67 ± 6.38 g
AVERAGE FOOD INTAKE [3, 22]: 12.90 g
AVERAGE WATER INTAKE [3, 22]: 25.12 mL
Body Weight [3, 22]: 185.67 ± 11.86 g
AVERAGE FOOD INTAKE [3, 23]: 13.05 g
AVERAGE WATER INTAKE [3, 23]: 26.13 mL
Body Weight [3, 23]: 186.5 ± 8.83 g
AVERAGE FOOD INTAKE [3, 24]: 14.33 g
AVERAGE WATER INTAKE [3, 24]: 26.31 mL
Body Weight [3, 24]: 189.5 ± 11.81 g
AVERAGE FOOD INTAKE [3, 25]: 14.30 g
AVERAGE WATER INTAKE [3, 25]: 25.71 mL
Body Weight [3, 25]: 185.67 ± 11.69 g
body weight as compared to diabetic control group ([3]; monotherapies, p≦0.05): reduction was significantly less
